Measured values: patent US20260015325A1, “ALKOXY HETEROARYL- CARBOXAMIDE OR THIOAMIDE COMPOUNDS” (SYNGENTA CROP PROTECTION AG, priority 2022, published 2026)

How the values were obtained:
Type in all cases: in vivo
[1] = tested on: Myzus persicae (Green Peach Aphid); assay: Myzus persicae (Green Peach Aphid): feeding/contact activity, sunflower leaf discs; settings: foliar, 144 h, application rate of 200 ppm, mixed ages on sprayed sunflower leaf discs, 6 days after infestation, read-out: mortality
Method: Example B6: Myzus persicae (Green Peach Aphid): Feeding/Contact Activity
Sunflower leaf discs were placed onto agar in a 24-well microtiter plate and sprayed with aqueous test solutions prepared from 10′000 ppm DMSO stock solutions. After drying, the leaf discs were infested with an aphid population of mixed ages. The samples were assessed for mortality 6 days after infestation.

[2] = tested on: Myzus persicae (Green Peach Aphid); assay: Myzus persicae (Green Peach Aphid): intrinsic activity, sucrose solution; settings: 120 h, test rate of 12 ppm, intrinsic, mixed with sucrose solution under Parafilm, 5 days after infestation, read-out: mortality
Description: Example B8: Myzus persicae (Green Peach Aphid). Intrinsic Activity
Test compounds prepared from 10′000 ppm DMSO stock solutions were applied by pipette into 24-well microtiter plates and mixed with sucrose solution. The plates were closed with a stretched Parafilm. A plastic stencil with 24 holes was placed onto the plate and infested pea seedlings were placed directly on the Parafilm. The infested plate was closed with a gel blotting paper and another plastic stencil and then turned upside down. The samples were assessed for mortality 5 days after infestation.

[3] = tested on: Tetranychus urticae (Two-Spotted Spider Mite); assay: whole plant or invertebrate; settings: foliar, 192 h, application rate of 200 ppm, mixed population (mobile stages) on sprayed bean leaf discs, 8 days after infestation, read-out: mortality
Method: Example B11: Tetranychus urticae (Two-Spotted Spider Mite): Feeding/Contact Activity
Bean leaf discs on agar in 24-well microtiter plates were sprayed with aqueous test solutions prepared from 10′000 ppm DMSO stock solutions. After drying the leaf discs were infested with a mite population of mixed ages. The samples were assessed for mortality on mixed population (mobile stages) 8 days after infestation.

C[C@@H](COc1cnc(Cl)c(C(=O)NCC(F)F)c1)NS(=O)(=O)C(F)(F)F [Compound P-55, 2-chloro-N-(2,2-difluoroethyl)-5-[(2S)-2-(trifluoromethylsulfonylamino)propoxy]pyridine-3-carboxamide]
mortality at 200 ppm [1]: ≥ 80%
mortality at 12 ppm [2]: ≥ 80%

C[C@@H](COc1cnc(Cl)c(C(=O)NCC(=O)NCC2CC2)c1)NS(=O)(=O)C(F)(F)F [Compound P-53, 2-chloro-N-[2-(cyclopropylmethylamino)-2-oxo-ethyl]-5-[(2S)-2-(trifluoromethylsulfonylamino)propoxy]pyridine-3-carboxamide]
mortality at 200 ppm [1]: ≥ 80%

C[C@@H](COc1cnc(Cl)c(C(=O)NC(C)(C)C)c1)NS(=O)(=O)C(F)(F)F [Compound P-11, N-tert-butyl-2-chloro-5-[(2S)-2-(trifluoromethylsulfonylamino)propoxy]pyridine-3-carboxamide]
mortality at 200 ppm [1]: ≥ 80%
mortality at 12 ppm [2]: ≥ 80%
mortality at 200 ppm [3]: ≥ 80%

C[C@@H](COc1cnc(Cl)c(C(=O)NC2(C)CCOC2)c1)NS(=O)(=O)C(F)(F)F (stereo partly drawn) [Compound P-51, 2-chloro-N-(3-methyltetrahydrofuran-3-yl)-5-[(2S)-2-(trifluoromethylsulfonylamino)propoxy]pyridine-3-carboxamide]
mortality at 200 ppm [3]: ≥ 80%

COCN([C@@H](C)COc1cc(C(=O)NC2(C#N)CC2)c(C)cn1)S(=O)(=O)C(F)(F)F [Compound P-79, N-(1-cyanocyclopropyl)-2-[(2S)-2-[methoxymethyl(trifluoromethylsulfonyl)amino]propoxy]-5-methyl-pyridine-4-carboxamide]
mortality at 200 ppm [3]: ≥ 80%

COCCC#CC(C)(C)NC(=O)c1cc(OC[C@H](C)NS(=O)(=O)C(F)(F)F)ncc1C [Compound P-72, N-(5-methoxy-1,1-dimethyl-pent-2-ynyl)-5-methyl-2-[(2S)-2-(trifluoromethylsulfonylamino)propoxy]pyridine-4-carboxamide]
mortality at 200 ppm [1]: ≥ 80%

C[C@@H](COc1cnc(Cl)c(C(=O)N(C)CC(F)F)c1)NS(=O)(=O)C(F)(F)F [Compound P-59, 2-chloro-N-(2,2-difluoroethyl)-N-methyl-5-[(2S)-2-(trifluoromethylsulfonylamino)propoxy]pyridine-3-carboxamide]
mortality at 200 ppm [1]: ≥ 80%

C[C@@H](COc1cnc(Cl)c(C(=O)Nc2ncc(Cl)cc2F)c1)NS(=O)(=O)C(F)(F)F [Compound P-19, 2-chloro-N-(5-chloro-3-fluoro-2-pyridyl)-5-[(2S)-2-(trifluoromethylsulfonylamino)propoxy]pyridine-3-carboxamide]
mortality at 12 ppm [2]: ≥ 80%

Cc1cnc(OC[C@H](C)NS(=O)(=O)C(F)(F)F)cc1C(=O)NCc1ccc2c(c1)COC2 [Compound P-69, N-(1,3-dihydroisobenzofuran-5-ylmethyl)-5-methyl-2-[(2S)-2-(trifluoromethylsulfonylamino)propoxy]pyridine-4-carboxamide]
mortality at 200 ppm [1]: ≥ 80%

C[C@@H](COc1cnc(Cl)c(C(=O)NCc2ccccc2)c1)NS(=O)(=O)C(F)(F)F [Compound P-44, N-benzyl-2-chloro-5-[(2S)-2-(trifluoromethylsulfonylamino)propoxy]pyridine-3-carboxamide]
mortality at 200 ppm [3]: ≥ 80%

C[C@@H](COc1cnc(Cl)c(C(=O)Nc2ncc(C#N)cc2F)c1)NS(=O)(=O)C(F)(F)F [Compound P-18, 2-chloro-N-(5-cyano-3-fluoro-2-pyridyl)-5-[(2S)-2-(trifluoromethylsulfonylamino)propoxy]pyridine-3-carboxamide]
mortality at 200 ppm [3]: ≥ 80%

Cc1ncc(OC[C@H](C)NS(=O)(=O)C(F)(F)F)cc1C(=O)NC(C)C [Compound P-34, N-isopropyl-2-methyl-5-[(2S)-2-(trifluoromethylsulfonylamino)propoxy]pyridine-3-carboxamide]
mortality at 200 ppm [1]: ≥ 80%

Cc1ncc(OC[C@H](C)NS(=O)(=O)C(F)(F)F)cc1C(=O)N(C)C1CC1 [Compound P-40, N-cyclopropyl-N,2-dimethyl-5-[(2S)-2-(trifluoromethylsulfonylamino)propoxy]pyridine-3-carboxamide]
mortality at 200 ppm [1]: ≥ 80%

Cc1cnc(OC[C@H](C)NS(=O)(=O)C(F)(F)F)cc1C(=O)NCC(F)(F)F [Compound P-80, 5-methyl-N-(2,2,2-trifluoroethyl)-2-[(2S)-2-(trifluoromethylsulfonylamino)propoxy]pyridine-4-carboxamide]
mortality at 200 ppm [3]: ≥ 80%

CCN1OC[C@H](NC(=O)c2cc(OC[C@H](C)NS(=O)(=O)C(F)(F)F)cnc2Cl)C1=O [Compound P-49, 2-chloro-N-[(4S)-2-ethyl-3-oxo-isoxazolidin-4-yl]-5-[(2S)-2-(trifluoromethylsulfonylamino)propoxy]pyridine-3-carboxamide]
mortality at 200 ppm [1]: ≥ 80%
mortality at 200 ppm [3]: ≥ 80%

C[C@@H](COc1cnc(Cl)c(C(=O)Nc2ccc(S(C)(=O)=O)cc2F)c1)NS(=O)(=O)C(F)(F)F [Compound P-24, 2-chloro-N-(2-fluoro-4-methylsulfonyl-phenyl)-5-[(2S)-2-(trifluoromethylsulfonylamino)propoxy]pyridine-3-carboxamide]
mortality at 200 ppm [3]: ≥ 80%

Cc1ncc(OC[C@H](C)NS(=O)(=O)C(F)(F)F)cc1C(=O)NC1CC(F)(F)C1 [Compound P-37, N-(3,3-difluorocyclobutyl)-2-methyl-5-[(2S)-2-(trifluoromethylsulfonylamino)propoxy]pyridine-3-carboxamide]
mortality at 200 ppm [3]: ≥ 80%

Cc1cnc(OC[C@H](C)NS(=O)(=O)C(F)(F)F)cc1C(=O)N(C)C1(C#N)CC1 [Compound P-67, N-(1-cyanocyclopropyl)-N,5-dimethyl-2-[(2S)-2-(trifluoromethylsulfonylamino)propoxy]pyridine-4-carboxamide]
mortality at 200 ppm [1]: ≥ 80%

Cc1ncc(OC[C@H](C)NS(=O)(=O)C(F)(F)F)cc1C(=O)NCc1ncccc1Cl [Compound P-32, N-[(3-chloro-2-pyridyl)methyl]-2-methyl-5-[(2S)-2-(trifluoromethylsulfonylamino)propoxy]pyridine-3-carboxamide]
mortality at 200 ppm [1]: ≥ 80%
mortality at 200 ppm [3]: ≥ 80%

Cc1cnc(OC[C@H](C)NS(=O)(=O)C(F)(F)F)cc1C(=O)Nc1cccc(C#N)c1F [Compound P-75, N-(3-cyano-2-fluoro-phenyl)-5-methyl-2-[(2S)-2-(trifluoromethylsulfonylamino)propoxy]pyridine-4-carboxamide]
mortality at 200 ppm [1]: ≥ 80%

Cc1ncc(OC[C@H](C)NS(=O)(=O)C(F)(F)F)cc1C(=O)NCC(F)F [Compound P-39, N-(2,2-difluoroethyl)-2-methyl-5-[(2S)-2-(trifluoromethylsulfonylamino)propoxy]pyridine-3-carboxamide]
mortality at 200 ppm [3]: ≥ 80%

Cc1cnc(OC[C@H](C)NS(=O)(=O)C(F)(F)F)cc1C(=O)NC(C)c1cccnc1 (stereo partly drawn) [Compound P-76, 5-methyl-N-[1-(3-pyridyl)ethyl]-2-[(2S)-2-(trifluoromethylsulfonylamino)propoxy]pyridine-4-carboxamide]
mortality at 200 ppm [1]: ≥ 80%

CCc1ncsc1NC(=O)c1cc(OC[C@H](C)NS(=O)(=O)C(F)(F)F)ncc1C [Compound P-68, N-(4-ethylthiazol-5-yl)-5-methyl-2-[(2S)-2-(trifluoromethylsulfonylamino)propoxy]pyridine-4-carboxamide]
mortality at 200 ppm [1]: ≥ 80%

CCN1OC[C@@H](NC(=O)c2cc(OC[C@H](C)N(COC)S(=O)(=O)C(F)(F)F)ncc2C)C1=O [Compound P-78, N-[(4R)-2-ethyl-3-oxo-isoxazolidin-4-yl]-2-[(2S)-2-[methoxymethyl(trifluoromethylsulfonyl)amino]propoxy]-5-methyl-pyridine-4-carboxamide]
mortality at 200 ppm [1]: ≥ 80%
mortality at 200 ppm [3]: ≥ 80%

Cc1cnc(OC[C@H](C)NS(=O)(=O)C(F)(F)F)cc1C(=O)NCc1ccccc1 [Compound P-77, N-benzyl-5-methyl-2-[(2S)-2-(trifluoromethylsulfonylamino)propoxy]pyridine-4-carboxamide]
mortality at 200 ppm [3]: ≥ 80%

Cc1cnc(OC[C@H](C)NS(=O)(=O)C(F)(F)F)cc1C(=O)NC(C)C1CC1 (stereo partly drawn) [Compound P-73, N-(1-cyclopropylethyl)-5-methyl-2-[(2S)-2-(trifluoromethylsulfonylamino)propoxy]pyridine-4-carboxamide]
mortality at 200 ppm [1]: ≥ 80%

CCNC(=O)c1cc(OC[C@H](C)NS(=O)(=O)C(F)(F)F)cnc1C [Compound P-36, N-ethyl-2-methyl-5-[(2S)-2-(trifluoromethylsulfonylamino)propoxy]pyridine-3-carboxamide]
mortality at 200 ppm [1]: ≥ 80%

COCN([C@@H](C)COc1cc(C(=O)NC2CC2)c(Br)cn1)S(=O)(=O)C(F)(F)F [Compound P-81, 5-bromo-N-cyclopropyl-2-[(2S)-2-[methoxymethyl(trifluoromethylsulfonyl)amino]propoxy]pyridine-4-carboxamide]
mortality at 12 ppm [2]: ≥ 80%

Cc1ncc(OC[C@H](C)NS(=O)(=O)C(F)(F)F)cc1C(=O)Nc1ccc(F)cc1F [Compound P-33, N-(2,4-difluorophenyl)-2-methyl-5-[(2S)-2-(trifluoromethylsulfonylamino)propoxy]pyridine-3-carboxamide]
mortality at 200 ppm [3]: ≥ 80%
